According to US8614327B2 (Vertex Pharmaceuticals Incorporated, priority 2004, dated 2013):

Target: T1, ΔF508-CFTR (Homo sapiens, UniProt P13569, DEL508-508)
T1 construct: expressed in transfected cells
Assay: Membrane potential optical (FRET/VIPR) assay, identification of potentiator compounds
Type: cell-based
Details: Table 3, assay not given; for % Activity: relative efficacy
How it was run: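 Double-addition potentiator screen: compound delivered in gluconate-substituted Cl^--free medium, membrane potential followed via CC2-DMPE/DiSBAC2(3) FRET on VIPR. Cells were ΔF508-CFTR-expressing NIH3T3 mouse fibroblasts, held 2 h at 37° C. then 24 h at 27° C. before assay.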

T1 sequence (P13569 with tags, fused parts or gaps DEL508-508): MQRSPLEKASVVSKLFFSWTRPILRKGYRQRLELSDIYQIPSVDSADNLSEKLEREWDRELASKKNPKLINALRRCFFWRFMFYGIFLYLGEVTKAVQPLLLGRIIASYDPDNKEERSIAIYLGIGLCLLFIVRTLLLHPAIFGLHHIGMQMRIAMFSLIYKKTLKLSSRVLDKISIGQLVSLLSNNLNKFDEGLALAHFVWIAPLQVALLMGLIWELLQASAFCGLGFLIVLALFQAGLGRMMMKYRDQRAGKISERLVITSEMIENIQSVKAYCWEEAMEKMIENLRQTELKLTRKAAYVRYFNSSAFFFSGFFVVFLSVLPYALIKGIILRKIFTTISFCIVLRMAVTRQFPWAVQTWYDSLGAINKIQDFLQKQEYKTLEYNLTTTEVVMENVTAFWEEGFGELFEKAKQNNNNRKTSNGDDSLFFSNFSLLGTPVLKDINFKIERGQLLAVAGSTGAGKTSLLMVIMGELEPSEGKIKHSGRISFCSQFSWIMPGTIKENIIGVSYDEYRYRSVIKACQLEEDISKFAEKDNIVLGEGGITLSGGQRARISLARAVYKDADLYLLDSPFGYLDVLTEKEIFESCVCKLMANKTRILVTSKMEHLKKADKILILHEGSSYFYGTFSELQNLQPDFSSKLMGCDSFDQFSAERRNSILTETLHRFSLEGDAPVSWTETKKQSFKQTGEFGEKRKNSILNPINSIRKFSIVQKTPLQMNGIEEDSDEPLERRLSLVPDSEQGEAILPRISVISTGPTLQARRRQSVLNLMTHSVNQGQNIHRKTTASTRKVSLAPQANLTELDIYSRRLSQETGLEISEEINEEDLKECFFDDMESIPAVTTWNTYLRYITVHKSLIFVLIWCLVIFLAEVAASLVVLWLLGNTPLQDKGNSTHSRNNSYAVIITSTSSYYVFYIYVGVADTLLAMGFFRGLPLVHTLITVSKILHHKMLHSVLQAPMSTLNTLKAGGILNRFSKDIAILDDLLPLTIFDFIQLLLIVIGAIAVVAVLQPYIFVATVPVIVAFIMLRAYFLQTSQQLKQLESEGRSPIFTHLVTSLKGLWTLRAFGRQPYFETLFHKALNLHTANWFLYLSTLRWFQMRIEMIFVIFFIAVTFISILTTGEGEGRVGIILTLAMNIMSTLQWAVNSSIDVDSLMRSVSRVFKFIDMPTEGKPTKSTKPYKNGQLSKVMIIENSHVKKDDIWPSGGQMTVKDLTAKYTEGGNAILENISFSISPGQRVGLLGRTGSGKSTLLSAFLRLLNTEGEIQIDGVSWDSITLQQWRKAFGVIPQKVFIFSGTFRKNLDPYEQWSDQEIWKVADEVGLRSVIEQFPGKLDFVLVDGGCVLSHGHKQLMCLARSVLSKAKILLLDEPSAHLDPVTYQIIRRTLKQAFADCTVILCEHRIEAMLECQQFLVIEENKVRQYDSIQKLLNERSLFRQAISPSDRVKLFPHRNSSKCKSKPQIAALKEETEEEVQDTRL

Row | Structure (SMILES) | EC50 [µM] | % Activity
1 | O=C(Nc1ccc2ccccc2c1)c1c[nH]c2ccccc2c1=O [Compound 481, N-(2-naphthyl)-4-oxo-1H-quinoline-3-carboxamide] | < 10 | ++ (between 25% to 100%)
2 | CCOC(=O)NC1CCCc2ccc(NC(=O)c3c[nH]c4ccccc4c3=O)cc21 (stereo not shown) [Compound 482, [7-[(4-Oxo-1H-quinolin-3-yl)carbonylamino]tetralin-1-yl]aminoformic acid ethyl ester] | 10 to 25 | ++ (between 25% to 100%)
3 | CC1(c2cc(F)c(NC(=O)c3cnc4ccccc4c3O)cc2O)CCCCCC1 [Compound 483, N-[2-fluoro-5-hydroxy-4-(1-methylcycloheptyl)-phenyl]-4-hydroxy-quinoline-3-carboxamide] | < 10 | ++ (between 25% to 100%)
4 | CNc1cc(NC(=O)c2c[nH]c3ccccc3c2=O)ccc1C(C)(C)C [Compound 484, N-(3-methylamino-4-tert-butyl-phenyl)-4-oxo-1H-quinoline-3-carboxamide] | < 10 | ++ (between 25% to 100%)
5 | CN(C)c1cc(NC(=O)c2c[nH]c3ccccc3c2=O)ccc1C(C)(C)C [Compound 485, N-(3-Dimethylamino-4-tert-butyl-phenyl)-4-oxo-1H-quinoline-3-carboxamide] |  | ++ (between 25% to 100%)
6 | CC(C)(C)c1cc(F)c(NC(=O)c2c[nH]c3cc(F)c(F)cc3c2=O)cc1O [Compound 486, 6,7-difluoro-N-(2-fluoro-5-hydroxy-4-tert-butyl-phenyl)-4-oxo-1H-quinoline-3-carboxamide] | < 10 | ++ (between 25% to 100%)
7 | CC(C)(C)c1cc(C(F)(F)F)c(NC(=O)c2c[nH]c3cccc(O)c3c2=O)cc1O [Compound 487, 5-hydroxy-N-[5-hydroxy-4-tert-butyl-2-(trifluoromethyl)phenyl]-4-oxo-1H-quinoline-3-carboxamide] | < 10 | ++ (between 25% to 100%)
8 | O=C(Nc1cc(N2CCCCC2)cc(C(F)(F)F)c1)c1c[nH]c2ccccc2c1=O [Compound 488, 4-oxo-N-[3-(1-piperidyl)-5-(trifluoromethyl)phenyl]-1H-quinoline-3-carboxamide] | < 10 | ++ (between 25% to 100%)
9 | Cc1ccc2[nH]cc(C(=O)Nc3ccc(N4CCC(C)(C)C4)cc3C(F)(F)F)c(=O)c2c1 [Compound 489, N-[4-(3,3-dimethylpyrrolidin-1-yl)-2-(trifluoromethyl)phenyl]-6-methyl-4-oxo-1H-quinoline-3-carboxamide] | < 10 | ++ (between 25% to 100%)
10 | CC(C)(C)c1ccc(NC(=O)c2c[nH]c3ccc(F)cc3c2=O)cc1O [Compound 490, 6-fluoro-N-(3-hydroxy-4-tert-butyl-phenyl)-4-oxo-1H-quinoline-3-carboxamide] | < 10 | ++ (between 25% to 100%)
11 | CC(C)(C)c1ccc(NC(=O)c2c[nH]c3cccc(O)c3c2=O)cc1F [Compound 491, N-(3-fluoro-4-tert-butyl-phenyl)-5-hydroxy-4-oxo-1H-quinoline-3-carboxamide] | < 10 | ++ (between 25% to 100%)
12 | COC(=O)C1CCCCN1c1ccc(NC(=O)c2c[nH]c3ccccc3c2=O)c(C(F)(F)F)c1 (stereo not shown) [Compound 492, methyl 1-[4-[(4-oxo-1H-quinolin-3-yl)carbonylamino]-3-(trifluoromethyl)phenyl]piperidine-2-carboxylate] | < 10 | +++ (>100%)
13 | CC(CO)(CO)c1ccc(NC(=O)c2c[nH]c3cccc(O)c3c2=O)cc1 [Compound 493, 5-hydroxy-N-[4-[2-hydroxy-1-(hydroxymethyl)-1-methyl-ethyl]phenyl]-4-oxo-1H-quinoline-3-carboxamide] | < 10 | ++ (between 25% to 100%)
14 | O=C(Nc1cc2[nH]ccc2cc1C(F)(F)F)c1c[nH]c2cccc(O)c2c1=O [Compound 494, 5-hydroxy-4-oxo-N-[5-(trifluoromethyl)-1H-indol-6-yl]-1H-quinoline-3-carboxamide] | < 10 | ++ (between 25% to 100%)
15 | O=C(Nc1ccc2cc(C(F)(F)F)[nH]c2c1)c1c[nH]c2ccc(F)cc2c1=O [Compound 495, 6-fluoro-4-oxo-N-[2-(trifluoromethyl)-1H-indol-6-yl]-1H-quinoline-3-carboxamide] | < 10 | ++ (between 25% to 100%)
16 | COc1ccc2[nH]cc(C(=O)Nc3cc(O)c(C(C)(C)C)cc3C(C)(C)C)c(=O)c2c1 [Compound 496, N-(5-hydroxy-2,4-ditert-butyl-phenyl)-6-methoxy-4-oxo-1H-quinoline-3-carboxamide] | < 10 | ++ (between 25% to 100%)
17 | CC(C)c1cc(C(F)(F)F)c(NC(=O)c2c[nH]c3ccccc3c2=O)cc1O [Compound 497, N-[5-hydroxy-4-isopropyl-2-(trifluoromethyl)phenyl]-4-oxo-1H-quinoline-3-carboxamide] | < 10 | +++ (>100%)
18 | Cc1cccc2[nH]cc(C(=O)Nc3cc(O)c(C4(C)CCCCC4)cc3F)c(=O)c12 [Compound 498, N-[2-fluoro-5-hydroxy-4-(1-methylcyclohexyl)-phenyl]-5-methyl-4-oxo-1H-quinoline-3-carboxamide] | < 10 | ++ (between 25% to 100%)
19 | Cc1ccc2c(=O)c(C(=O)Nc3cc(O)c(C4(C)CCCCC4)cc3F)c[nH]c2c1 [Compound 499, N-[2-fluoro-5-hydroxy-4-(1-methylcyclohexyl)-phenyl]-7-methyl-4-oxo-1H-quinoline-3-carboxamide] | < 10 | ++ (between 25% to 100%)
20 | CC(C)(C)c1cc2cc[nH]c2cc1NC(=O)c1c[nH]c2cccc(O)c2c1=O [Compound 500, 5-hydroxy-4-oxo-N-(5-tert-butyl-1H-indol-6-yl)-1H-quinoline-3-carboxamide] | < 10 | ++ (between 25% to 100%)
21 | O=C(Nc1cc(O)c(C(F)(F)F)cc1F)c1c[nH]c2ccccc2c1=O [Compound 501, N-[2-fluoro-5-hydroxy-4-(trifluoromethyl)phenyl]-4-oxo-1H-quinoline-3-carboxamide] | < 10 | ++ (between 25% to 100%)
22 | COc1cc(NC(=O)c2c[nH]c3cccc(O)c3c2=O)cc(C(F)(F)F)c1 [Compound 502, 5-hydroxy-N-[3-methoxy-5-(trifluoromethyl)phenyl]-4-oxo-1H-quinoline-3-carboxamide] | < 10 | ++ (between 25% to 100%)
